How the values were obtained:
Type in all cases: cell-based
TAAR1 = TAAR1 (Mus musculus, UniProt Q923Y8); assay: TAAR1 reporter gene assay
Procedure: HEK293 cells were co-transfected with TAAR expression plasmids and a cAMPdependent reporter gene encoding secreted alkaline phosphatase (CRE-SEAP). Transfected cells were incubated with urine extracts from different mammalian species, and phosphatase activity was quantified with a fluorescent substrate as a reporter for TAAR activation. […] Responses to predator odors were not observed in control cells transfected with reporter gene alone. Three other TAARs-TAAR7f, TAAR8c, and TAAR9-detected natural products common to urine of numerous mammalian species, including mouse, rat, human, and carnivores (FIG. 1B, FIG. 11). However, these receptors detect carnivore and non-carnivore urines with similar sensitivity. We reasoned that TAAR4 detected a specific chemical enriched in predator urine, and that this cue can function as a kairomone. […] Basic dichloromethane extracts of bobcat urine were separated by silica gel chromatography, and fractions analyzed with the reporter gene assay (FIG. 2A). Several chromatography fractions containing the TAAR4 activator were obtained and analyzed by mass spectrometry (FIG. 2B).
(§1) TAAR functional assays. […] SEAP activity is measured as fluorescence resulting from dephosphorylation of a substrate, 4-methylumbelliferyl phosphate. Fluorescence values were obtained using an EnVision plate reader (Perkin Elmer) and are reported directly without normalization. […]

mTAAR7f = target: T1, mTAAR7f (Mus musculus, UniProt Q5QD08); assay: TAAR reporter gene assay, mTAAR7f; design: Full Taar coding regions were cloned into pcDNA3.1-(Invitrogen); Rho tag (first 20 aa of bovine rhodopsin + linker); expressed in transfected cells; host or cells: HEK293
T1 sequence (Q5QD08 1-358): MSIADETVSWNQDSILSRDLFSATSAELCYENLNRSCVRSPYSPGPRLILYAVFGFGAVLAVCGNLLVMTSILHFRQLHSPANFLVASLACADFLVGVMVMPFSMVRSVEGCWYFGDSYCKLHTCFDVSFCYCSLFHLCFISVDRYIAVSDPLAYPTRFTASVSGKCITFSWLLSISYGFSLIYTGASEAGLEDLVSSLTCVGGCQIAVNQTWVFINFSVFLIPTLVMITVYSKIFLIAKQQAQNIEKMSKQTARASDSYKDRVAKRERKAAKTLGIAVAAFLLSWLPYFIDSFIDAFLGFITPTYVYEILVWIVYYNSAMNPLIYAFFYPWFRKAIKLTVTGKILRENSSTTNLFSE
Excerpt: Here, we set out to identify agonists for additional mouse and rat TAARs. We examined odor response profiles using a previously established reporter gene assay based on cAMP-dependent odor transduction in olfactory sensory neurons (40, 42). Briefly, TAAR plasmids were transfected into HEK293 cells along with a cAMP-dependent reporter gene encoding secreted alkaline phosphatase (CRE-SEAP). TAARs were expressed both in unmodified form and as fusion proteins with an N-terminal sequence of bovine rhodopsin (‘Rho tag’) that promotes cell surface expression of some chemosensory receptors (35). Transfected cells were incubated with test chemicals, and phosphatase activity was quantified with a fluorescent substrate as a reporter for TAAR activation. In initial experiments, we tested 38 different odorant mixtures containing 244 structurally diverse test chemicals (2-5 μM) for the ability to activate each mTAAR. […]
(§2) TAAR functional assays. […] Fluorescence was measured on an EnVision plate reader (Perkin Elmer) and SEAP activity graphed as relative fluorescence of a phosphatase substrate.
as §1

rTAAR7b = target: T2, rTAAR7b (Rattus norvegicus, UniProt Q923X8); assay: TAAR reporter gene assay, rTAAR7b; design: Full Taar coding regions were cloned into pcDNA3.1-(Invitrogen); expressed in transfected cells; host or cells: HEK293
T2 sequence (Q923X8 1-358): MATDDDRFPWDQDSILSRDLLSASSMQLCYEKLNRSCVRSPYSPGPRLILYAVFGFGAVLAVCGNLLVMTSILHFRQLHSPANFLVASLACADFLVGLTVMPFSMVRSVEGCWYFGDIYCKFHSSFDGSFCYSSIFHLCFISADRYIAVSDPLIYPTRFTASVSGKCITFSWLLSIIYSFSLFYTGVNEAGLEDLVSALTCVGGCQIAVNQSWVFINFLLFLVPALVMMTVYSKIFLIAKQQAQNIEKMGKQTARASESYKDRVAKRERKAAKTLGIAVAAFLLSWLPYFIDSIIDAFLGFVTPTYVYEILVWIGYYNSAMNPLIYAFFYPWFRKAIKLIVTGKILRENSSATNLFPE
Excerpt: Here, we set out to identify agonists for additional mouse and rat TAARs. We examined odor response profiles using a previously established reporter gene assay based on cAMP-dependent odor transduction in olfactory sensory neurons (40, 42). Briefly, TAAR plasmids were transfected into HEK293 cells along with a cAMP-dependent reporter gene encoding secreted alkaline phosphatase (CRE-SEAP). TAARs were expressed both in unmodified form and as fusion proteins with an N-terminal sequence of bovine rhodopsin (‘Rho tag’) that promotes cell surface expression of some chemosensory receptors (35). Transfected cells were incubated with test chemicals, and phosphatase activity was quantified with a fluorescent substrate as a reporter for TAAR activation. In initial experiments, we tested 38 different odorant mixtures containing 244 structurally diverse test chemicals (2-5 μM) for the ability to activate each mTAAR. Subsequently, we tested 73 amines that included known mTAAR agonists and related chemicals for the ability to activate each rTAAR.
as §2

Chain of TAAR1 (Q923Y8 whole entry, the tested form may be a part): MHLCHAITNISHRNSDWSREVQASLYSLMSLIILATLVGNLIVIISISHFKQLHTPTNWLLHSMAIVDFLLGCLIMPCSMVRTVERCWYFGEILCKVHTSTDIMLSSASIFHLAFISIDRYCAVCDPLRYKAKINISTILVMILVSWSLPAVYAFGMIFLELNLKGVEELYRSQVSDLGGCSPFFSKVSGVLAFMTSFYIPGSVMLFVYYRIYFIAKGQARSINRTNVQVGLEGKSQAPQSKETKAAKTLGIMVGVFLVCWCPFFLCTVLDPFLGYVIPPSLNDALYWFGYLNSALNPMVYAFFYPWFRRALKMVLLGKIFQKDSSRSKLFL

SMILES | TAAR1 activation (TAAR1) | mTAAR7f activation (mTAAR7f) | rTAAR7b activation (rTAAR7b)
NCCc1ccccc1 [2-phenylethylamine] | did activate TAAR1 |  | 
CN(C)CCc1ccccc1 [ligand 6, N,N-dimethyl-2-phenylethylamine] |  | not | not
CN(C)C1CCCCC1 [ligand 10, N,N-dimethylcyclohexylamine] |  | activated | activated
